{"source": "patent US10010561B2", "about": "“Method of treating cancer using high efficiency self-illuminative nanocomplexes and method of manufacturing the same” (Research & Business Foundation Sungkyunkwan University, priority 2014, dated 2018)", "molecules": {"B1": {"name": "m-Rluc8: modified self-illuminative protein of SEQ. ID. NO: 1, wild-type Renilla luciferase mutated at 8 sites (protein)", "chain": "MASKVYDPEQRKRMITGPQWWARCKQMNVLDSFINYYDSEKHAENAVIFLHGNATSSYLWRHVVPHIEPVARCIIPDLIGMGKSGKSGNGSYRLLDHYKYLTAWFELLNLPKKIIFVGHDWGAALAFHYAYEHQDRIKAIVHMESVVDVIESWDEWPDIEEDIALIKSEEGEKMVLENNFFVETVLPSKIMRKLEPEEFAAYLEPFKEKGEVRRPTLSWPREIPLVKGGKPDVVQIVRNYNAYLRASDDLPKLFIESDPGFFSNAIVEGAKKFPNTEFVKVKGLHFLQEDAPDEMGKYIKSFVERVLKNEQ", "modifications": "Renilla luciferase", "notes": "ID; NO: 1, wild-type Renilla luciferase mutated at 8 sites"}}, "key": {"[1]": {"experiment": "doxorubicin capture in linear nucleic acid, doxorubicin autofluorescence", "type": "physicochemical", "conditions": "room temperature, 24 hours; linear nucleic acid:doxorubicin 1:1 to 1:20; FIG. 5", "procedure": "To contain doxorubicin in a new nucleic acid-based functional anticancer drug, linear nucleic acids represented by SEQ. ID. NO: 2 ([NT]) and SEQ. ID. NO: 3 (5'-/thiol/[NT]3') were used. To prepare a doxorubicin-binding linear nucleic acid, the linear nucleic acid and doxorubicin were mixed with various concentrations (linear nucleic acid:doxorubicin=1:1 to 1:20) and reacted at room temperature for 24 hours, and autofluorescence of the doxorubicin was detected."}, "[2]": {"experiment": "luminescence activity of m-Rluc8 compared with wild-type luciferase", "type": "biochemical", "conditions": "versus wild-type luciferase purified by the same method; FIG. 2", "from_the_text": "To obtain a high efficiency self-luminescent light source, a modified self-illuminative protein (m-Rluc8) in which artificial mutation occurred on an amino acid sequence of a wild-type luciferase was expressed in E. coli and purified. That is, an expression vector (m-Rluc8_pPAL7) into which the modified self-illuminative protein (m-Rluc8) consisting of an amino acid sequence (SEQ. ID. NO: 1) shown in FIG. 1 was inserted was manufactured, transformed into and expressed in E. coli BL21 strain cells and then purified, thereby obtaining a high purity modified self-illuminative protein (m-Rluc8)."}}, "note": "{SH} = thiol linker"}
{"molecule": "linear nucleic acid (DNA GTCGCAGGCACATCAGTACAGCCAGATCCGTACCTACTCG; DNA, 5' {SH}, backbone and methylation of C not given here; conjugated to gold)", "values": [{"measurement": "maximum doxorubicin binding to 1 μM linear nucleic acid", "setting": "[1]", "value": 10, "unit": "µM"}]}
{"molecule": "B1", "values": [{"measurement": "luminescence activity relative to wild-type luciferase", "setting": "[2]", "value": "more than 5.65 fold"}]}
